Reference: US20120035265A1, “COMPOSITIONS, METHODS, AND DEVICES FOR THE TREATMENT OF DYSMENORRHEA” (MediciNova, Inc., priority 2010, published 2012)

Legend:
[1] = test system: uterine muscle isolated from pregnant rats; test: PG F2α-induced contraction of uterine muscle isolated from pregnant rats; format: cell-based, rat; settings: Rattus norvegicus, contraction induced with 5 μg/mL of PG F2α, mean ± standard error of 10 samples
Procedure: After SD-strain rats on Day 17 of pregnancy were exsanguinated to death, the uterus was isolated to prepare up to 8 myometrial strips (about 4 mm×10 mm) per animal in the direction of the longitudinal muscle while avoiding the adhesion to the placenta. Each strip was suspended in an organ bath containing 10 mL of a modified Locke-Ringer solution at […] (aerated with 95% O2+5% CO2 gas) with a load of about 1.0 g. After the suspended sample became stable for static tension, 5 μg/mL of PG F2α or 1 mU/mL of oxytocin was added to induce contraction. After the sample was allowed to stand for at least 30 minutes to confirm stable rhythmic contraction for frequency and amplitude, the test, control, or positive control substance solution was added cumulatively at intervals of 5 minutes. After the treatment was completed, 1×10^−5 mol/L of forskolin was added to obtain maximal relaxation. The contractile force of the uterine sample was delivered via a force displacement transducer to a strain pressure amplifier and recorded on a Rectigraph.
Considering the sum of the uterine contraction for 5 minutes before treatment as 100%, the response rate to each concentration of the test, control, or positive control substance solution was calculated from the sum of uterine contraction after treatment for both PG F2α and oxytocin induced contraction. Then, the response rates obtained were used to prepare a concentration-response curve for each sample. The maximum relaxation obtained by adding forskolin was considered as a baseline. Variable points (peaks) with amplitude (tension) of […] or lower were excluded from analysis. Samples showing any of the following events were not used for the study or excluded from analysis.
Microsoft® Excel 2000 (Microsoft Corp.) was used to sum up and calculate data and prepare tables and figures. Using a concentration-response curve prepared for each sample (X axis: log value of the concentration of the substance added, Y axis: response rate), a negative log value (pEC50) of the concentration that inhibited the uterine contraction by 50% (EC50) was calculated from a straight line connecting the 2 concentrations just above and below 50%, and then converted to EC50 (unit: mol/L).

[2] = test system: women with primary dysmenorrhea; test: Myometrial activity, uterine blood flow and lower abdominal pain in women with primary dysmenorrhea (intravenous MN-221); format: in vivo, human
Procedure: Myometrial activity and uterine blood flow is recorded in a group of women, aged 16 to 39 years. All have regular cycles of 25 to 32 days. They suffer regularly from menstrual pain. All are so disabled by the condition that they have to abstain from work for one to three days a month, even if they use non-narcotic analgesics. At least during the first menstrual day, all have a continuous lower abdominal pain, which varies in intensity; most of them also complain of symptoms such as nausea and vomiting. The symptoms during the recordings conform to those experienced during previous menstruations.
In the menstrual cycle preceding the investigation, all women have biphasic basal body temperature recordings, and plasma oestradiol and progesterone concentrations which are higher in the middle of the luteal phase than on the first menstrual day. Recordings are made; each begin within 24 hours of the onset of menstruation lasting for more than three hours.
Myometrial activity is recorded as changes in intrauterine pressure by a microtransducer catheter. The transducer is connected to an amplifier and a potentiometer recorder. Uterine blood flow is recorded by a technique based on measuring thermodilution from a heated thermistor to blood flow in the surrounding tissue. The thermistor is placed in contact with the endometrium of the fundus and, consequently, the recordings mainly reflect the blood flow at that site. The thermistor and the pressure transducer are inserted through the cervical canal into the uterus. The receptors are kept in position by the rigidity of the transducer catheter and by use of sterile paste around the catheters in the vagina.
The patients are asked to report all symptoms during recordings, including changes in character and intensity of the menstrual pain. MN-221 is given as a single bolus intravenous injection of 0.30 mg, 0.60 mg, or 0.90 mg. Before and after the administration of MN-221, pulse rate and arterial blood pressure (measured by auscultation) are registered at 5-minute intervals.

[3] = test system: uterine activity of anesthetized pregnant rats; test: Uterine motility of anesthetized pregnant rats (balloon method); format: in vivo, rat
Procedure: Rats were anesthetized with urethane, and experiments were conducted based on balloon method. Uterine activity and mean blood pressure of dam were led to a pressure amplifier via a pressure transducer. As for heart rate, pulse waves were led to tachometer. Recti-graphs were used for recording. The test substance, control substance, or positive control substance was administered intravenously and cumulatively every 15 minutes, while doses were increased gradually.

[4] = test system: uterine muscle isolated from pregnant rats; test: Interaction of MN-221 and β-adrenoceptor antagonists on spontaneous contraction of uterine muscle isolated from pregnant rats (Schild regression); format: cell-based, rat; settings: Rattus norvegicus
Procedure: The experimental operation of this study was as reported by T. Kawarabayashi et al.^4. After each SD-strain rat on Day 21 of pregnancy was exsanguinated to death, the uterus was isolated to prepare 8 myometrial samples (about 4 mm×10 mm) in the direction of the longitudinal muscle, with the adhesion to the placenta being avoided. Each myometrial sample was suspended with a load of about 1.0 g in an organ bath containing 10 mL of the Locke-Ringer solution at 37° C. […] After the suspended samples became stable for the amplitude and frequency of spontaneous contraction, each antagonist or distilled water was added to the bath to pretreat them for about 15 minutes. […] The contractile force of each sample was outputted through a force displacement transducer to a strain pressure amplifier and recorded with a rectigraph.
Any variable point (peak) with amplitude (tension) of 0.2 g or lower was excluded from analysis. Samples meeting any of the following criteria were rejected or removed from analysis.
Microsoft® Excel 2000 (Microsoft Corp.) was used for summing up or calculating data and preparing figures and tables. […] This EC50 value was used to calculate the concentration ratio (CR) of EC50 when an antagonist was added (for each sample) to that when no antagonist was added (mean value of the whole control group) and the logarithmic value of CR-1 (log [CR-1]).
Then, the added concentration of the antagonist was plotted on the X axis (logarithmic value) and log(CR-1) on the Y axis (Schild plot) to calculate the value of the X-axis intercept (pA2) and slope of the line using linear approximation (Schild regression^5). The slope was statistically compared with a slope of 1 (paired t-test; a probability level of less than 5% was considered significant). […] The mean and standard error were calculated for each data point obtained and indicated to two decimal places (or in 3 significant digit).

[5] = single bolus intravenous injection of 0.30 mg, 0.60 mg, or 0.90 mg
[6] = inhibition of uterine motility, anesthetized pregnant rats

- EC50 ([1]; read-out: EC50): 66.4 ± 19.3 nM
- EC50 ([1]; read-out: pEC50 (converted)): 51.3 nM
- EC50 ([4]; MN-221, control group (treated with distilled water), read-out: EC50): 0.843 ± 0.221 nM
- EC50 ([4]; MN-221, control group (treated with distilled water), read-out: pD2 (converted)): 0.676 nM
- EC50 ([4]; MN-221 after pretreatment with CGP 20712A 1 × 10^−8 mol/L, read-out: EC50): 0.868 ± 0.15 nM
- EC50 ([4]; MN-221 after pretreatment with CGP 20712A 1 × 10^−8 mol/L, read-out: pD2 (converted)): 0.692 nM
- EC50 ([4]; MN-221 after pretreatment with CGP 20712A 1 × 10^−9 mol/L, read-out: EC50): 1.25 ± 0.148 nM
- EC50 ([4]; MN-221 after pretreatment with CGP 20712A 1 × 10^−9 mol/L, read-out: pD2 (converted)): 1.15 nM
- EC50 ([4]; MN-221 after pretreatment with CGP 20712A 3 × 10^−9 mol/L, read-out: EC50): 1.05 ± 0.278 nM
- EC50 ([4]; MN-221 after pretreatment with CGP 20712A 3 × 10^−9 mol/L, read-out: pD2 (converted)): 0.692 nM
- EC50 ([4]; MN-221 after pretreatment with ICI 118,551 1 × 10^−8 mol/L, read-out: EC50): 23.1 ± 6.39 nM
- EC50 ([4]; MN-221 after pretreatment with ICI 118,551 1 × 10^−8 mol/L, read-out: pD2 (converted)): 16.6 nM
- EC50 ([4]; MN-221 after pretreatment with ICI 118,551 3 × 10^−8 mol/L, read-out: EC50): 50.9 ± 12.7 nM
- EC50 ([4]; MN-221 after pretreatment with ICI 118,551 3 × 10^−8 mol/L, read-out: pD2 (converted)): 28.8 nM
- EC50 ([4]; MN-221 after pretreatment with ICI 118,551 3 × 10^−9 mol/L, read-out: EC50): 4.6 ± 1.26 nM
- EC50 ([4]; MN-221 after pretreatment with ICI 118,551 3 × 10^−9 mol/L, read-out: pD2 (converted)): 2.95 nM
- EC50 ([4]; MN-221 after pretreatment with SR 59230A 1 × 10^−8 mol/L, read-out: EC50): 1.54 ± 1.08 nM
- EC50 ([4]; MN-221 after pretreatment with SR 59230A 1 × 10^−8 mol/L, read-out: pD2 (converted)): 0.447 nM
- EC50 ([4]; MN-221 after pretreatment with SR 59230A 3 × 10^−8 mol/L, read-out: EC50): 1.79 ± 0.499 nM
- EC50 ([4]; MN-221 after pretreatment with SR 59230A 3 × 10^−8 mol/L, read-out: pD2 (converted)): 1.07 nM
- EC50 ([4]; MN-221 after pretreatment with SR 59230A 3 × 10^−9 mol/L, read-out: EC50): 1.24 ± 0.338 nM
- EC50 ([4]; MN-221 after pretreatment with SR 59230A 3 × 10^−9 mol/L, read-out: pD2 (converted)): 0.955 nM
Compound: CN(C)C(=O)COc1ccc2c(c1)C[C@@H](NC[C@H](O)c1ccc(O)c(CCO)c1)CC2 [MN-221, (−)-bis(2-{[(2S)-2-({(2R)-2-hydroxy-2-[4-hydroxy-3-(2-hydroxyethyl)phenyl]ethyl}amino)-1,2,3,4-tetrahydronaphthalen-7-yl]oxy}-N,N-dimethyl-acetamide) monosulfate]
- pain relief ([2]; after injection or infusion): pain relief within one minute after injection
- increase in heart rate, blood pressure, palpitations, tremors, and/or flushes ([2]; intravenous, all subjects): substantially no increase in heart rate, blood pressure, palpitations, tremors, and/or flushes
- duration of effect ([2]; single bolus intravenous injection): lasts for few hours
- local uterine blood flow [2, 5]: generally increases
- myometrial activity [2, 5]: decreases the myometrial activity
- inhibition of uterine motility ([3]; anesthetized pregnant rats, intravenous cumulative dosing): inhibited uterine motility dose-dependently
- potency relative to HSR-81 [3, 6]: approximately 4 times
- potency relative to ritodrine [3, 6]: approximately 400 times
- potency relative to terbutaline [3, 6]: approximately 5.5 times
- ED30 values ([3]; uterine motility, intravenous cumulative dosing every 15 minutes, urethane-anesthetized pregnant rats): 0.13 µg/kg/min
